In patent publication US10806702B2, “Bis-polymer lipid-peptide conjugates and nanoparticles thereof” (THE REGENTS OF THE UNIVERSITY OF CALIFORNIA, priority 2012, dated 2020):

Assays:
[1] = Drug loading of micelles (thin film hydration, HPLC); type: physicochemical; details: drug encapsulated in dC18-1coi(P2K)-P750 micelles
Method: DOX, paclitaxel and rapamycin loaded micelles were prepared using identical procedures by thin film hydration method. dC18-1coi(P2K)-P750 and the different drugs were dissolved in methanol in a glass vial and the solvent was evaporated in vacuum oven for 3 hours. The dried film containing the conjugate and drug was rehydrated with 25 mM phosphate buffer, pH 7.4, and the solution was stirred for 16 hours to allow the assembly into drug loaded 3-helix micelles. Free drug was removed by centrifugation followed by spin ultrafiltration (Amicon centrifugal filter units, MW cutoff: 3000 Da). The concentrate obtained was washed with water and lyophilized to obtain drug loaded micelles. The drug loaded micelles were dissolved in methanol and loading was determined by reverse phase HPLC monitoring the absorbance of drugs at 280 nm. For all characterization experiments of drug loaded micelles, lyophilized powder of micellar-drugs was dissolved in 25 mM phosphate buffer, pH 7.4, and the solution was heated in water bath at 60° C. for an hour to break potential aggregates to obtain a clear solution.
The solvent was evaporated in vacuum oven for 3 hours. […] The salts and free drug were removed by centrifugation followed by spin ultrafiltration (Amicon centrifugal filter units, MW cutoff: 3000 Da). […]
Drug loading content was determined by HPLC. […]

NDL tumors [2] = details: stated as known; cited from earlier work
[3] = CED, 20 μl, DOX 0.2 mg/ml, a week after infusion
NDL tumors [4] = test: Intravenous DOX-loaded micelles: organ fluorescence in NDL tumor mice; type: in vivo, FVB mice; details: 24 and 72 h

Row | Structure (SMILES) | Loading (wt %) [1] [wt %] | clearance time from blood circulation (NDL tumors [2]) | brain tissue toxicity (H&E staining) [3] | fluorescence in different organs after free DOX injections (NDL tumors [4])
1 | COc1cccc2c1C(=O)c1c(O)c3c(c(O)c1C2=O)C[C@@](O)(C(=O)CO)C[C@@H]3O[C@H]1C[C@H](N)[C@H](O)[C@H](C)O1 [Doxorubicin, doxorubicin] | 7.6 ± 0.4 | tens of minutes | significant tissue damage | cannot be detected
2 | CC(=O)O[C@H]1C(=O)[C@@]2(C)[C@H]([C@H](OC(=O)c3ccccc3)[C@]3(O)C[C@H](OC(=O)[C@H](O)[C@@H](NC(=O)c4ccccc4)c4ccccc4)C(C)=C1C3(C)C)[C@]1(OC(C)=O)CO[C@@H]1C[C@@H]2O [Paclitaxel, paclitaxel] | 1.9 ± 0.4 | – | – | –
